Test results reported in article PMC6534341, “α-Synuclein–Confocal Nanoscanning (ASYN-CONA), a Bead-Based Assay for Detecting Early-Stage α-Synuclein Aggregation” (Analytical Chemistry, 2019).
Where two headings read alike, the source gives them in different places.

Biological target: T1, α-synuclein (Homo sapiens, UniProt P37840, A91C)
T1 construct: gene SNCA
Assay: ASYN-CONA on-bead aggregation assay (confocal bead ring intensity, […] EtOH, […] h)
Type: biochemical

Structure (SMILES)	IC50	IC50 (read-out: IC50)
O=c1cc(-c2ccccc2)oc2cc(O)c(O)c(O)c12 [baicalein]	4.32 ± 0.6 µM	
COc1cc(/C=C/C(=O)CC(=O)/C=C/c2ccc(O)c(OC)c2)ccc1O [curcumin]		2.76 ± 0.89 µM
CO[C@H]1/C=C/O[C@@]2(C)Oc3c(C)c(O)c4c(O)c(c(/C=N/N5CCN(C)CC5)c(O)c4c3C2=O)NC(=O)/C(C)=C\C=C\[C@H](C)[C@H](O)[C@@H](C)[C@@H](O)[C@@H](C)[C@H](OC(C)=O)[C@@H]1C [rifampicin]		502 ± 360 µM
